# Read-outs that look alike come from different tables or passages of the source.
# Experiment: Ocular tissue concentrations (aqueous humor, vitreous humor, iris, retina, choroid, cornea) after topical ocular, subcutaneous and intravitreal administration
# Type: in vivo, New Zealand White rabbits
# Conditions: New Zealand White, rabbit; for concentration at 2 h / concentration at 4 h / concentration at 0.5 h / concentration at 1 h: subcutaneous, 5 mg/kg/dose, subcutaneous 5 mg/kg/dose; for concentration at 6 hr / concentration at 24 hr / concentration at 48 hr / concentration at 72 hr: other: intravitreal, 2.5 mg/eye
# Experimental: To measure the concentration of Compound 1 in plasma and ocular tissues following topical ocular, subcutaneous, and intravitreal administration, New Zealand White rabbits were administered Compound 1, and plasma and ocular samples were collected at pre-determined time points. Compound 1 formulations were prepared fresh on each day of dosing.
# Ocular tissue samples from both eyes of each animal were collected and weights were recorded. Plasma and ocular tissue sample concentrations of Compound 1 were determined by LC-MS/MS.
# New Zealand White rabbits weighing 2.5 to 3.5 kg were used on this study. Rabbits were housed one per cage. Animals were not fasted and only healthy animals with no ocular illness were used. Two rabbits per group were sacrificed at each of four ocular tissue sampling time points for a total of eight rabbits per group.
# Animals were anesthetized for ocular (topical) and intravitreal dosing following the 12IA7 IACUC protocol. Each rabbit received a bolus dose of test formulation either via topical ocular administration 3 times daily on Days 1 and 2 (at 0, 6, and 12 hours), and once on Day 3 (at 0 hours) into both eyes; via intravitreal administration into both eyes once on Day 1 (at 0 hours); or via subcutaneous administration 2 times daily on Days 1 and 2 (at 0 and 8 hours) and once daily on Day 3 (at 0 hours). Doses were given within an approximately 1 hour window each day where applicable.
# On Day 1, for intravitreal administration, or on Day 3, for topical ocular and subcutaneous administration, at the appropriate ocular tissue collection time points, animals were euthanized and both eyes were enucleated immediately. Following enucleation, each eye was rinsed with phosphate-buffered saline. Ocular tissue samples from both eyes of each animal were collected at predetermined time points and weights were recorded. All the samples were frozen immediately on dry ice, and stored at −60° C. to −80° C. pending bioanalysis.
# An LC-MS/MS method was developed for the determination of Compound 1 in rabbit aqueous tissues (plasma, aqueous and vitreous humor) and solid ocular tissue samples. A pre-study standard curve was analyzed to determine the specificity, range, and lower limit of quantitation of the method. Plasma and tissue homogenate study samples were extracted and analyzed. All the samples were treated identically to the standards.
# One eight-point standard curve was used in each analytical batch. To be accepted, each batch must have had at least five of eight standards with accuracy within ±20% of nominal, except at the lower limit of quantification (LLOQ), where ±25% was acceptable.
# Concentration versus time data is plotted in FIGS. 3-16. All data are expressed as ng/g of the free drug. Samples that were below the limit of quantitation (0.2 ng/mL) were not used in the calculation of averages.
# [1] = choroid, TABLE 16: Choroid, free acid, Group 3, read-out: Choroid Average
# [2] = cornea homogenate, Cornea homogenate, OD, sodium salt, intravitreal 2.5 mg/eye, Group 4, read-out: Cornea Conc. (ng/mL) OD
# [3] = cornea homogenate, Cornea homogenate, OS, sodium salt, intravitreal 2.5 mg/eye, Group 4, read-out: Cornea Conc. (ng/mL) OS
# [4] = cornea homogenate, Cornea homogenate, right eye, intravitreal 2.5 mg/eye (group 5), individual animals, read-out: Conc. (ng/mL) OD
# [5] = cornea homogenate, Cornea homogenate, left eye, intravitreal 2.5 mg/eye (group 5), individual animals, read-out: Conc. (ng/mL) OS
# [6] = cornea homogenate, Cornea homogenate, OD, free acid, Group 3, read-out: Cornea Conc. (ng/mL) OD
# [7] = cornea homogenate, Cornea homogenate, OS, free acid, Group 3, read-out: Cornea Conc. (ng/mL) OS
# [8] = cornea homogenate, Cornea homogenate, OS, sodium salt, Group 2, read-out: Cornea Conc. (ng/mL) OS
# [9] = cornea homogenate, Cornea homogenate, OD, sodium salt, Group 2, read-out: Cornea Conc. (ng/mL) OD
# [10] = cornea homogenate, TABLE 16: Cornea homogenate, OD, free acid, Group 3, read-out: Cornea Conc. (ng/mL) OD
# [11] = cornea homogenate, TABLE 16: Cornea homogenate, OS, free acid, Group 3, read-out: Cornea Conc. (ng/mL) OS
# [12] = cornea, Cornea, OD, sodium salt, intravitreal 2.5 mg/eye, Group 4, read-out: Cornea Conc. (ng/g) OD
# [13] = cornea, Cornea, OS, sodium salt, intravitreal 2.5 mg/eye, Group 4, read-out: Cornea Conc. (ng/g) OS
# [14] = cornea, Cornea, average, intravitreal 2.5 mg/eye (group 5), read-out: Avg.
# [15] = cornea, Cornea, right eye, intravitreal 2.5 mg/eye (group 5), individual animals, read-out: Conc. (ng/g) OD
# [16] = cornea, Cornea, sodium salt, intravitreal 2.5 mg/eye, Group 4, read-out: Cornea Avg.
# [17] = cornea, Cornea, left eye, intravitreal 2.5 mg/eye (group 5), individual animals, read-out: Conc. (ng/g) OS
# [18] = cornea, Cornea, OD, free acid, Group 3, read-out: Cornea Conc. (ng/g) OD
# [19] = cornea, Cornea, OS, sodium salt, Group 2, read-out: Cornea Conc. (ng/g) OS
# [20] = cornea, Cornea, free acid, Group 3, read-out: Cornea Average
# [21] = cornea, Cornea, sodium salt, Group 2, read-out: Cornea Average
# [22] = cornea, Cornea, OD, sodium salt, Group 2, read-out: Cornea Conc. (ng/g) OD
# [23] = cornea, TABLE 16: Cornea, OD, free acid, Group 3, read-out: Cornea Conc. (ng/g) OD
# [24] = cornea, TABLE 16: Cornea, free acid, Group 3, read-out: Cornea Average
smiles,measurement,setting,value
COC(=O)N[C@@H](Cc1ccccc1)C(=O)N[C@@H](Cc1ccc(NS(=O)(=O)O)cc1)c1csc(-c2cccs2)n1 [Compound 1],concentration at 2 h,"choroid, TABLE 16: Choroid, OS, free acid, Group 3, read-out: Choroid Conc. (ng/g) OS",53.2 ng/g
same,concentration at 2 h,[1],47.7 ng/g
same,concentration at 4 h,"choroid, TABLE 16: Choroid, OD, free acid, Group 3, read-out: Choroid Conc. (ng/g) OD",53 ng/g
same,concentration at 4 h,[1],61 ng/g
same,concentration at 6 hr,[2],6300 ng/mL
same,concentration at 6 hr,[3],6940 ng/mL
same,concentration at 6 hr,[4],7910 ng/mL
same,concentration at 24 hr,[2],2180 ng/mL
same,concentration at 24 hr,[3],1560 ng/mL
same,concentration at 24 hr,[5],1190 ng/mL
same,concentration at 24 hr,[4],1520 ng/mL
same,concentration at 48 hr,[2],1050 ng/mL
same,concentration at 48 hr,[3],662 ng/mL
same,concentration at 48 hr,[5],293 ng/mL
same,concentration at 48 hr,[4],437 ng/mL
same,concentration at 0.5 h,[6],0.55 ng/mL
same,concentration at 0.5 h,[7],0.897 ng/mL
same,concentration at 0.5 h,[8],2.46 ng/mL
same,concentration at 1 h,[6],1.11 ng/mL
same,concentration at 1 h,[9],2.37 ng/mL
same,concentration at 1 h,[8],4.52 ng/mL
same,concentration at 2 h,[6],0.514 ng/mL
same,concentration at 2 h,[8],0.998 ng/mL
same,concentration at 4 h,[6],0.942 ng/mL
same,concentration at 4 h,[9],0.752 ng/mL
same,concentration at 4 h,[7],2.51 ng/mL
same,concentration at 4 h,[8],0.784 ng/mL
same,concentration at 0.5 h,[10],0.55 ng/mL
same,concentration at 0.5 h,[11],0.897 ng/mL
same,concentration at 1 h,[10],1.11 ng/mL
same,concentration at 2 h,[10],0.514 ng/mL
same,concentration at 4 h,[10],0.942 ng/mL
same,concentration at 4 h,[11],2.51 ng/mL
same,concentration at 6 hr,[12],69300 ng/g
same,concentration at 6 hr,[13],76300 ng/g
same,concentration at 6 hr,[14],54600 ng/g
same,concentration at 6 hr,[15],87000 ng/g
same,concentration at 6 hr,[16],71400 ng/g
same,concentration at 24 hr,[12],24000 ng/g
same,concentration at 24 hr,[13],17200 ng/g
same,concentration at 24 hr,[14],17300 ng/g
same,concentration at 24 hr,[17],13100 ng/g
same,concentration at 24 hr,[15],16700 ng/g
same,concentration at 24 hr,[16],23700 ng/g
same,concentration at 48 hr,[12],11600 ng/g
same,concentration at 48 hr,[13],7280 ng/g
same,concentration at 48 hr,[14],4630 ng/g
same,concentration at 48 hr,[17],3220 ng/g
same,concentration at 48 hr,[15],4810 ng/g
same,concentration at 48 hr,[16],7530 ng/g
same,concentration at 72 hr,[14],762 ng/g
same,concentration at 72 hr,[16],421 ng/g
same,concentration at 0.5 h,[18],6.05 ng/g
same,concentration at 0.5 h,"cornea, Cornea, OS, free acid, Group 3, read-out: Cornea Conc. (ng/g) OS",9.87 ng/g
same,concentration at 0.5 h,[19],27.1 ng/g
same,concentration at 0.5 h,[20],7.96 ng/g
same,concentration at 0.5 h,[21],19.4 ng/g
same,concentration at 1 h,[18],12.2 ng/g
same,concentration at 1 h,[22],26.1 ng/g
same,concentration at 1 h,[19],25.3 ng/g
same,concentration at 1 h,[20],12.2 ng/g
same,concentration at 1 h,[21],31.1 ng/g
same,concentration at 2 h,[18],5.65 ng/g
same,concentration at 2 h,[22],11.7 ng/g
same,concentration at 2 h,[19],11 ng/g
same,concentration at 2 h,[20],5.65 ng/g
same,concentration at 2 h,[21],9.45 ng/g
same,concentration at 4 h,[18],10.4 ng/g
same,concentration at 4 h,[22],8.27 ng/g
same,concentration at 4 h,[19],8.62 ng/g
same,concentration at 4 h,[20],15.8 ng/g
same,concentration at 4 h,[21],10.1 ng/g
same,concentration at 0.5 h,[23],6.05 ng/g
same,concentration at 0.5 h,"cornea, TABLE 16: Cornea, OS, free acid, Group 3, read-out: Cornea Conc. (ng/g) OS",9.87 ng/g
same,concentration at 0.5 h,[24],7.96 ng/g
same,concentration at 1 h,[23],12.2 ng/g
same,concentration at 1 h,[24],12.2 ng/g
same,concentration at 2 h,[23],5.65 ng/g
same,concentration at 2 h,[24],5.65 ng/g
